Measurements as given in patent US7741355B2, “Small-molecule modulators of TRP-p8 activity” (Dendreon Corporation, priority 2006, dated 2010).
Like-named read-outs stand apart in the source and are kept apart here. Blank lines part the entries; values can stand above or below the compound they belong to.

Assays:
Parent CHO = assay: ATP viability assay with non-transfected (parent) CHO cells; assay type: cell-based, Chinese Hamster; conditions: Cricetulus griseus
From the text: (§1) Human Trp-p8 transfected CHO cells (referred to herein as CHO/Trp-p8) were generated for use in experiments of the present invention. Expression of Trp-p8 polypeptide in this transfectant and the absence of any endogenous expression in the non-transfected CHO was confirmed by western blot and immunofluorescence using a Trp-p8 specific antibody (GS2.20) as well as the calcium flux assay with Icilin (1-[2-hydroxyphenyl]-4-[3-nitrophenyl]-1,2,3,6-tetrahydropyrimidine-2-one) and menthol (2-isopropyl-5-methyl-cyclohexanol). Non-transfected CHO cells were used to establish the specificity of the effects of the compounds observed with CHO/Trp-p8.
(§2) As a primary screen for efficacy and specificity for agonists, both the non-transfected CHO and CHO/Trp-p8 cells were exposed to 1 or 10 μM of test compounds in 1% dimethylsulfoxide (DMSO) or 1% DMSO (control) in a 96-well black walled, black-bottomed, cell-culture treated plate. DMSO was the solvent for all of the compounds tested. After 24-26 hours at 37° C., the cells were lysed and ATP concentration determined via a chemiluminescence assay using a commercially available reagent kit—Cell Titer-Glo (Promega; Madison, Wis.). […] (EC50 is defined herein as the agonist concentration at which there is a 50% reduction in relative cell viability).

CHO/Trp-p8 xenograft = assay: CHO/Trp-p8 murine tumor xenograft model; assay type: in vivo, mice
Description: FIGS. 6A-6B are graphs depicting results from an exemplary animal model suitable for testing and characterizing small-molecule Trp-p8 modulators of the present invention. Mice were injected subcutaneously with CHO/Trp-p8 cells, resulting in the formation of solid tumors. The length (longest dimension) and width (dimension perpendicular to and in the same plane as length) of each tumor was measured with Vernier calipers, and the tumor volume was approximated by a formula for the volume of an ellipsoid: 0.52*L*W^2. When the average tumor volume reached approximately 100 mm^3, the mice were randomized into groups. In FIG. 6A, the mice were administered a single dose of either a study compound as an aqueous formulation, or vehicle alone, by oral gavage. […] Tumors were then subsequently measured on the indicated days. […]
Mice were injected subcutaneously with CHO/Trp-p8 cells, resulting in the formation of solid tumors. The length (L; longest dimension) and width (W; dimension perpendicular to and in the same plane as length) of each tumor was measured with calipers, and the tumor volume was approximated by a formula for the volume of an ellipsoid: 0.52*L*W^2. […] Tumors were subsequently measured on the indicated days. […]
Mice were injected subcutaneously with CHO/Trp-p8 cells, resulting in the formation of solid tumors. […] Tumors were then subsequently measured on the indicated days. […]

[1] = Plasma concentrations in dogs after a single oral dose; assay type: in vivo; conditions: Beagle dogs (FIG. 9B), aqueous formulation, oral gavage
From the text: (§3) FIGS. 9A and 9B are graphs depicting the plasma concentrations of several compounds, as a function of time and dose, in rats (FIG. 9A), and dogs (FIG. 9B) after a single oral dose. […] Blood was collected at the indicated time points, and analyzed for drug levels.

Trp-p8 = biological target: T1, Trp-p8 (Homo sapiens, UniProt Q7Z2W7, T58I); assay: ATP viability assay with CHO/Trp-p8 cells at 37° C.; assay type: cell-based
T1 construct: expressed in transfected cells; host or cells: CHO (Chinese Hamster Ovary) cells
From the text: as §1
This Example discloses an ATP viability assay suitable for screening for effective Trp-p8 agonists. The ATP viability assay described herein employs CHO cells expressing an exogenous Trp-p8 cDNA. This example further establishes that Trp-p8 agonists of the present invention are effective in decreasing the viability of Trp-p8 expressing cells.
The concentration of intracellular ATP declines very rapidly when metabolically active cells undergo necrosis and/or apoptosis. The ATP concentration and consequently the relative cell viability can be measured by established methods using commercially available reagents. In the agonist screening methodology disclosed herein, a compound that specifically decreases the viability of CHO/Trp-p8 cells is referred to as an agonist.
as §2

[2] = Plasma concentrations in rats after a single oral dose; assay type: in vivo; conditions: rodents (FIG. 9A: rats), aqueous formulation, oral gavage
From the text: as §3

LuCaP = LuCaP murine tumor xenograft model expressing Trp-p8; assay type: in vivo, mice; conditions: intraperitoneal injection, once a day for 5 days; slower-growing tumor
Description: The LuCaP tumor model was obtained from Robert L. Vassella, Ph.D., Professor of Urology in the University of Washington's School of Medicine. The length (L; longest dimension) and width (W; dimension perpendicular to and in the same plane as length) of each tumor was measured with Vernier calipers, and the tumor volume was approximated by a formula for the volume of an ellipsoid: 0.52*L*W^2. When the average tumor volume reached approximately 150 mm^3, the mice were administered the compound, as an aqueous formulation, by intraperitoneal injection, once a day for 5 days. Tumors were then subsequently measured on the indicated days. The data is presented as mean tumor volumes±standard error of the mean.
Human prostate cancer xenografts expressing Trp-p8 (LuCaP, from Dr. Robert Vessella's lab in University of Washington—as assessed by in situ hybridization, quantitative polymerase chain reaction, and immunohistochemistry using a protein specific rabbit polyclonal antibody, T-904), as well as cell lines engineered to express Trp-p8, including CHO (Chinese Hamster Ovary) and EL-4 (Mouse Thymoma) cell lines, were used to establish tumor models in mice. Trp-p8 expression in the transfectants was confirmed by western blots and immunofluorescence using a Trp-p8 specific antibody (GS 2.20) as well as by response to known agonists in a calcium influx functional assay. […]

[3] = Sustained plasma levels after oral dosing (half-life, species not stated); assay type: in vivo; conditions: oral administration, read-out: t½ (sustained plasma levels) (converted)
From the text: as §3

[4] = test system: CHO-K1 cells lacking Trp-p8; assay: Matched CHO (Trp-p8-) murine tumor xenograft model (CHO-K1 cells lacking Trp-p8); assay type: in vivo, mice; conditions: 100 mg/kg, single oral dose
Description: Mice were injected subcutaneously with CHO-K1 cells lacking Trp-p8, resulting in the formation of solid tumors. The length (L; longest dimension) and width (W; dimension perpendicular to and in the same plane as length) of each tumor was measured with Vernier calipers, and the tumor volume was approximated by a formula for the volume of an ellipsoid: 0.52*L*W^2. When the average tumor volume reached approximately 50 mm^3, the mice were randomized into groups, and administered either a single dose of the compound as an aqueous formulation, or vehicle, by oral gavage. Tumors were then subsequently measured on the indicated days. The data is presented as mean tumor volumes±standard error of the mean.

[5] = ATP viability assay, read-out: CHO/Trp-p8 EC50
[6] = Table 5, Formula I-E, CHO/Trp-p8 cells, 24-26 hours at 37° C., 50% reduction in relative cell viability, read-out: EC50

T1 sequence (Q7Z2W7 whole entry T58I): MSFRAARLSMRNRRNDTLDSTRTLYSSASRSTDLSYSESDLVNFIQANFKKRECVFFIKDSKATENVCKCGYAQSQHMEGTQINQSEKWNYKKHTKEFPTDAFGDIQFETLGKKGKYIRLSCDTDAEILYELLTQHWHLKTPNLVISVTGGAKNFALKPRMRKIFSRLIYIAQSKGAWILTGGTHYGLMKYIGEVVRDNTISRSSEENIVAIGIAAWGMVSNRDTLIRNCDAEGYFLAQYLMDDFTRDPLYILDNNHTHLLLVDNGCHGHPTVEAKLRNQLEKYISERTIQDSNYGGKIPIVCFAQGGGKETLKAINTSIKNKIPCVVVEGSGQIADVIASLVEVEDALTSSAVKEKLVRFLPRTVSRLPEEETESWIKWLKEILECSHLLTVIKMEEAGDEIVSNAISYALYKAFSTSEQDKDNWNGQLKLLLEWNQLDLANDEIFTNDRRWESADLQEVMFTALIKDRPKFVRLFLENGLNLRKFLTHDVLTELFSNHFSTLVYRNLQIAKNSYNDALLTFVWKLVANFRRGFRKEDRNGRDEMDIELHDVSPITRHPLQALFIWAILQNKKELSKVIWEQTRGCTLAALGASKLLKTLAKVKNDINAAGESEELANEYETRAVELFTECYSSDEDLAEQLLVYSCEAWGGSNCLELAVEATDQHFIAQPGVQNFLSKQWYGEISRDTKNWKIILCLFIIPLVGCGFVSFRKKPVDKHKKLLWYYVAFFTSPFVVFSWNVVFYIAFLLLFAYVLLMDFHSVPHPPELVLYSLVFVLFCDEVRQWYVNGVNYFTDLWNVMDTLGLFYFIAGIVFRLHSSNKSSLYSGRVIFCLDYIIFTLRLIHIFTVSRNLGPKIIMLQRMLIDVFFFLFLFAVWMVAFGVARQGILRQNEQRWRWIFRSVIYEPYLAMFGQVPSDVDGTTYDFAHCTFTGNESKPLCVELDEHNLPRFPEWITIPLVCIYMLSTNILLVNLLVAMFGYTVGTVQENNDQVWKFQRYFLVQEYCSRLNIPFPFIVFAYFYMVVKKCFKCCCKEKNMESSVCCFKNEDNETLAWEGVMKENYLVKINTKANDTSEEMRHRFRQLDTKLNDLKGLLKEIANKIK

exposure after a single oral administration [1]: prolonged exposure
exposure after a single oral administration [2]: prolonged exposure
half-life [3]: ~9 h
Compound: COc1ccc2c(c1)n(CCN)c(=O)n2C(=O)[C@@H]1C[C@H](C)CC[C@H]1C(C)C [Compound I]
EC50 (Parent CHO): > 10000 nM
effect of treatment on tumor growth, CHO/Trp-p8 model (CHO/Trp-p8 xenograft; fast-growing tumor): attenuated growth, but did not cause regression
efficacy in the CHO/Trp-p8 xenograft model (CHO/Trp-p8 xenograft; single oral dose of 10 mg/kg): significant efficacy
times more potent than Compounds II, III, and IV (Trp-p8; ATP viability assay): approximately 3 times
EC50 (Trp-p8; [5]): 3 nM
effect of treatment on tumor growth, LuCaP model (LuCaP): statistically significant regression, as well as growth-inhibition
efficacy in the matched CHO (Trp-p8-) model [4]: did not show significant efficacy

exposure after a single oral administration [1]: prolonged exposure
exposure after a single oral administration [2]: prolonged exposure
half-life [3]: ~9 h
Compound: CC(C)[C@@H]1CC[C@@H](C)C[C@H]1C(=O)n1c(=O)n(CCN)c2ccccc21 [II]
EC50 (Parent CHO): > 10000 nM
EC50 (Trp-p8; [5]): 10 nM

exposure after a single oral administration [1]: prolonged exposure
exposure after a single oral administration [2]: prolonged exposure
half-life [3]: ~9 h
Compound: CC(C)[C@@H]1CC[C@@H](C)C[C@H]1C(=O)Nc1cc(-c2ccccc2)nn1CCN [III]
EC50 (Parent CHO): > 10000 nM
EC50 (Trp-p8; [5]): 10 nM

Compound: CC(C)[C@@H]1CC[C@@H](C)C[C@H]1C(=O)NCC(NC(=O)[C@@H](C)N)c1ccccc1 (stereo in doubt) [Compound 28, 2-Isopropyl-5-methyl-cyclohexanecarboxylic acid [2-(2-amino-propionylamino)-2-phenyl-ethyl]-amide]
EC50 (Trp-p8; Table 3, Formula I-C, CHO/Trp-p8 cells, 24-26 hours at 37° C., 50% reduction in relative cell viability, read-out: EC50): < 20 nM

Compound: CC(C)[C@@H]1CC[C@@H](C)C[C@H]1C(=O)Nc1cc(-c2ccccc2)nn1CCN [Compound 16]
EC50 (Trp-p8; Table 2, Formula I-B, CHO/Trp-p8 cells, 24-26 hours at 37° C., 50% reduction in relative cell viability, read-out: EC50): < 20 nM

Compound: CC(C)[C@@H]1CC[C@@H](C)C[C@H]1C(=O)NCCN(C(=O)CN)c1ccccc1 [Compound 35]
EC50 (Trp-p8; Table 4, Formula I-D, CHO/Trp-p8 cells, 24-26 hours at 37° C., 50% reduction in relative cell viability, read-out: EC50): 21 to 50 nM

Compound: CC(C)[C@@H]1CC[C@@H](C)C[C@H]1C(=O)Nc1ccccc1C(=O)NCCN [Compound 9]
EC50 (Trp-p8; Table 1, Formula I-A, CHO/Trp-p8 cells, 24-26 hours at 37° C., 50% reduction in relative cell viability, read-out: EC50): 21 to 50 nM

Compound: CCN(CC)C(=O)c1ccc2c(c1)n(CCN)c(=O)n2C(=O)[C@@H]1C[C@H](C)CC[C@H]1C(C)C [Compound 70]
EC50 (Trp-p8; [6]): 51 to 100 nM

Compound: CC(C)[C@@H]1CC[C@@H](C)C[C@H]1C(=O)n1c(=O)n(CCN)c2ccncc21 [Compound 62]
EC50 (Trp-p8; [6]): 21 to 50 nM

Compound: CC(C)[C@@H]1CC[C@@H](C)C[C@H]1C(=O)n1c(=O)n(CCN)c2cc([S+](C)[O-])ccc21 (stereo partly shown) [Compound 43, 3-(2-Amino-ethyl)-1-(2-isopropyl-5-methyl-cyclohexanecarbonyl)-5-methylsulfinyl-1,3-dihydro-benzoimidazol-2-one]
EC50 (Trp-p8; [6]): < 20 nM

Compound: CC(C)[C@@H]1CC[C@@H](C)C[C@H]1C(=O)n1c(=O)n(CCN)c2cc3ccccc3cc21 [Compound 51]
EC50 (Trp-p8; [6]): < 20 nM
